In patent US20040241239A1, “Mixed complexes for masking the taste of bitter active substances” (priority 2001, published 2004) one finds solubility and water solubility data, which are given here for one molecule.

Molecules are shown by their SMILES. Converted amounts (≈) assume the structure as drawn.

The series is described as follows: Solubility of HMR 3647. Format: physicochemical. The procedure: HMR 3647 has the chemical formula C43H65N5O10 and has a molecular weight of 812.0 g/mol. […] At acidic pH, the solubility can be increased to 80 mg/ml, since the protonated cation is formed at this pH.

Broadly, the solubility is the dissolved amount per volume that the medium holds. A low value points to a poorly soluble substance.

In turn, `CC[C@H]1OC(=O)[C@H](C)C(=O)[C@H](C)[C@@H](O[C@@H]2O[C@H](C)C[C@H](N(C)C)[C@H]2O)[C@](C)(OC)C[C@@H](C)C(=O)[C@H](C)[C@H]2N(CCCCn3cnc(-c4cccnc4)c3)C(=O)O[C@]12C` [HMR 3647] gave a solubility (aqueous medium at acidic pH, aqueous buffer, acidic pH, protonated cation) of 80 mg/mL (≈ 98.5 mM). Besides, the water solubility entry (water) is reported as “very poorly water-soluble”.
